Experimental data taken from paper PMC6152116, “Sulfonamide-Linked Ciprofloxacin, Sulfadiazine and Amantadine Derivatives as a Novel Class of Inhibitors of Jack Bean Urease; Synthesis, Kinetic Mechanism and Molecular Docking” (Molecules : A Journal of Synthetic Chemistry and Natural …, 2017).
“And” between values parts separate entries of the source, which are not always exact repeats. Equal entries are not always repeated. “Also recorded” adds a separate entry of the source. Where two headings read alike, the source gives them in different places.

How the values were obtained:
[1] = target: T1, jack bean urease (Canavalia ensiformis, UniProt P07374); test: biochemical
Procedure: The jack bean urease action was determined by measuring the ammonia produced by the indophenol method described by Weatherburn. The reaction mixtures, containing 50 µL of buffer (100 mM urea, 10 mM dibasic potassium phosphate, 1 mM EDTA and 10 mM LiCl, pH 8.2), 20 µL of sample and 20 µL of the jack bean urease (5 U/mL) were added in a 96-well plate and the plate was incubated at 37 °C for 30 min. After incubation, 50 μL of phenol reagent (1%, w/v phenol and 0.005%, w/v sodium nitroprusside) and 50 μL of alkali reagents (0.5%, w/v NaOH and 0.1% NaOCl) were added in each well, and again the plate was incubated at 37 °C for 10 min. After the second incubation, the absorbance was checked at 625 nm, using a microplate reader (OPTIMax, Tunable, Sunnyvale, CA, USA). All reactions were performed in triplicate. The urease inhibition activity was calculated according to the following formula:Inhibition (%) = [(B − S)/B] × 100 where B and S are the optical densities of sample and blank. Thiourea was used as reference.

[2] = target: T1, jack bean urease; test: Kinetic mechanism study of urease inhibition (Lineweaver–Burk plots); type: biochemical; settings: for Ki′ (ESI dissociation constant): from intercept versus inhibitor concentration; for Inhibition Type: urea as substrate
Procedure: Kinetic analysis was carried out to determine the mode of inhibition. […] Kinetics were determined by varying the dose of urea in the presence of different doses of compound 3e (0.025, 0.05, 0.01 and 0.02 µM), compound 6a (0.00, 0.0011, 0.0022, and 0.0044 µM), compound 9e (0.00, 0.015, 0.03 and 0.06 µM) and compound 12d (0.0130, 0.026, 0.052, 0.104 and 0.208 µM). In detail the urea doses were varied between 100, 50, 25, 12.5, 6.25 and 3.125 mM mM for urease kinetics studies and the rest of the procedure was same for all kinetic studies as described in the urease inhibition assay protocol. Maximal initial velocities were determined from the initial linear portion of the absorbances up to 10 min after the addition of enzyme at per minute’s intervals. The inhibition type of the enzyme was assayed by Lineweaver–Burk plots of the inverse of velocities (1/V) versus the inverse of substrate concentration 1/[S] mM^−1. The EI dissociation constant Ki was determined by the secondary plot of 1/V versus inhibitor concentration and the ESI dissociation constant Ki′ was calculated from the intercept versus inhibitor concentrations. Urease activity was determined by measuring ammonia production using the indophenol method as reported previously. The results (change in absorbance per min) were recorded at 625 nm using a microplate reader (Optimax Tunable, Sunnyvale, CA, USA).

[3] = Free radical scavenging assay (DPPH); settings: in comparison to the reference drug vitamin C
Procedure: Radical scavenging activity was determined by adjusting the already reported 2,2-diphenyl-1-picrylhydrazyl (DPPH) assay method. The assay arrangement comprised 100 µL of DPPH (150 µM), 20 µL of increasing concentrations of test compounds and the volume was adjusted to 200 µL in each well with DMSO. At a room temperature, the reaction mixture was incubated for 30 min. Ascorbic acid (Vitamin C) was utilized as a model inhibitor. The assay estimations were done by using a micro plate reader (OPTIMax, Tunable, Sunnyvale, CA, USA) at 517 nm. The response rates were analyzed and the percent inhibition caused by the presence of the tested inhibitor was calculated. Each concentration was analyzed in three independent experiments run thrice.

[4] = 100 mM urea, pH 8.2, 37 °C, read-out: Urease Activity IC50 ± SEM
[5] = Urease Activity IC50 ± SEM, 100 mM urea, pH 8.2, 37 °C

T1 sequence (P07374 whole entry, looked up): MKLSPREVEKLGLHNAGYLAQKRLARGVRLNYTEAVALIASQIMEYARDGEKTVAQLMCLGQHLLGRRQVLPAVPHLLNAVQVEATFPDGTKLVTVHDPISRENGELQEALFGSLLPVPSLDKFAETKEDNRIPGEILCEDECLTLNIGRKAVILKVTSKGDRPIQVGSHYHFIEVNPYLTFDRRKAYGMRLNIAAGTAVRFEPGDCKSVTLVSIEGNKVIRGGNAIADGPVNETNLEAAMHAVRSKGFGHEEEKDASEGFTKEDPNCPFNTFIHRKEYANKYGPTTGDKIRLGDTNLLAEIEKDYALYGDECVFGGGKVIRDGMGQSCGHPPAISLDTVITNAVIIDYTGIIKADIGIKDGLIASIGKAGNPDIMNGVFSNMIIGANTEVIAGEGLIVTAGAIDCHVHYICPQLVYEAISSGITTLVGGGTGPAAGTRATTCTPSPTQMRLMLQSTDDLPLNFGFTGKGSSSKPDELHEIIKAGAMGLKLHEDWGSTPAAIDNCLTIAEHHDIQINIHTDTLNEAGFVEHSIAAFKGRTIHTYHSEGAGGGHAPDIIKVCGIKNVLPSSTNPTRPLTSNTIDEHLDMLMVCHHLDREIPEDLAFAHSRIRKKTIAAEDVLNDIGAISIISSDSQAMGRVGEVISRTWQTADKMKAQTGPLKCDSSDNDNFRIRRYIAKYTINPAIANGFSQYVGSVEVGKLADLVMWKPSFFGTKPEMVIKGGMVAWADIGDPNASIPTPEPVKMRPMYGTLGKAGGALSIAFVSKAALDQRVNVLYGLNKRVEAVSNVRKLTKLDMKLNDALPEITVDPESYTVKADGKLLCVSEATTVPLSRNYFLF

2-((2,3-Dichlorophenyl)sulfonyl)hydrazine-1-carbothioamide [Compound 6d]
IC50 [1, 4]: 95 ± 4 nM

2-((3,5-Dimethylphenyl)sulfonyl)hydrazine-1-carbothioamide [Compound 6e]
IC50 [1, 4]: 174 ± 9 nM

2-((4-Methyl-3-nitrophenyl)sulfonyl)hydrazine-1-carbothioamide [Compound 6f]
IC50 [1, 4]: 127 ± 7.6 nM

Cc1ccc(S(=O)(=O)Nc2ccc(S(=O)(=O)Nc3ncccn3)cc2)cc1 [Compound 6a, 4-Methyl-N-(4-(N-(pyrimidin-2-yl)sulfamoyl)phenyl)benzenesulfonamide]
melting point: 223 to 225 °C | IC50 [1, 5]: 2.23 nM and 2.2 nM and 2 nM | Ki [2]: 1.1 nM | Ki′ (ESI dissociation constant) [2]: 0.0016 µM | Vmax ([2]; inhibitor dose 0.0011 µM): 0.00769 ΔA/Min | Vmax ([2]; inhibitor dose 0.0022 µM): 0.00493 ΔA/Min | Vmax ([2]; inhibitor dose 0.0044 µM): 0.00351 ΔA/Min | Inhibition Type [2]: mixed type of mode inhibition

O=[N+]([O-])c1ccccc1S(=O)(=O)Nc1ccc(S(=O)(=O)Nc2ncccn2)cc1 [Compound 6b, 2-Nitro-N-(4-(N-(pyrimidin-2-yl)sulfamoyl)phenyl)benzenesulfonamide]
IC50 ([1]; read-out: Urease Activity IC50 ± SEM, 100 mM urea, pH 8.2, 37 °C): 233 ± 11 nM

O=S(=O)(Nc1ccc(S(=O)(=O)Nc2ncccn2)cc1)c1ccc(-c2ccccc2)cc1 [Compound 6c, N-(4-(N-(pyrimidin-2-yl)sulfamoyl)phenyl)-[1,1′-biphenyl]-4-sulfonamide]
melting point: 168 to 170 °C | IC50 [1, 5]: 141 ± 7 nM

Cc1ccc(S(=O)(=O)NC23CC4CC(CC(C4)C2)C3)cc1 [Compound 9a, N-(Adamantan-1-yl)-4-methylbenzenesulfonamide]
IC50 [1, 5]: 289 ± 15 nM

O=[N+]([O-])c1ccc(S(=O)(=O)NC23CC4CC(CC(C4)C2)C3)cc1 [Compound 9b, N-(Adamantan-1-yl)-4-nitrobenzenesulfonamide]
IC50 [1, 5]: 27.6 ± 1 nM

O=S(=O)(NC12CC3CC(CC(C3)C1)C2)c1ccc(-c2ccccc2)cc1 [Compound 9c, N-(Adamantan-1-yl)-[1,1′-biphenyl]-4-sulfonamide]
IC50 [1, 5]: 17.8 nM

O=S(=O)(NC12CC3CC(CC(C3)C1)C2)c1cccc(Cl)c1Cl [Compound 9d, N-(Adamantan-1-yl)-2,3-dichlorobenzenesulfonamide]
melting point: 221 to 230 °C | IC50 [1, 5]: 53.3 ± 1 nM

Cc1cc(C)cc(S(=O)(=O)NC23CC4CC(CC(C4)C2)C3)c1 [Compound 9e, N-(Adamantan-1-yl)-3,5-dimethylbenzenesulfonamide]
melting point: 162 to 164 °C | IC50 [1, 5]: 25 nM | Ki [2]: 22.5 nM | Vmax ([2]; inhibitor dose 0.013 µM): 0.00299 ΔA/Min | Vmax ([2]; inhibitor dose 0.015 µM): 0.00127 ΔA/Min | Vmax ([2]; inhibitor dose 0.03 µM): 0.00108 ΔA/Min | Vmax ([2]; inhibitor dose 0.06 µM): 0.00085 ΔA/Min | Inhibition Type [2]: non-competitive mode of inhibition; also recorded: non-competitive mechanism; also recorded: Noncompetitive

Cc1ccc(S(=O)(=O)NC23CC4CC(CC(C4)C2)C3)cc1[N+](=O)[O-] [Compound 9f, N-(Adamantan-1-yl)-4-methyl-3-nitrobenzenesulfonamide]
IC50 [1, 5]: 55.8 ± 1 nM

Cc1ccc(S(=O)(=O)NNC(N)=S)cc1 [Compound 12a, 2-Tosylhydrazine-1-carbothioamide]
radical scavenging potency [3]: excellent radical scavenging potency | IC50 [1, 5]: 225 ± 6 nM

NC(=S)NNS(=O)(=O)c1ccc([N+](=O)[O-])cc1 [Compound 12b, 2-((4-Nitrophenyl)sulfonyl)hydrazine-1-carbothioamide]
radical scavenging potency [3]: excellent radical scavenging potency | melting point: 160 to 162 °C | IC50 [1, 5]: 141 ± 4 nM

NC(=S)NNS(=O)(=O)c1ccc(-c2ccccc2)cc1 [Compound 12c, 2-([1,1′-Biphenyl]-4-ylsulfonyl)hydrazine-1-carbothioamide]
IC50 [1, 5]: 186 ± 7 nM

NC(=S)NNS(=O)(=O)c1cccc(Cl)c1Cl [Compound 12d, 2-((2,3-Dichlorophenyl)sulfonyl)hydrazine-1-carbothioamide]
radical scavenging potency [3]: excellent radical scavenging potency | melting point: 229 to 231 °C | IC50 [1, 5]: 26.6 nM and 26 nM | Ki [2]: 53 nM | Ki′ (ESI dissociation constant) [2]: 0.125 µM | Vmax ([2]; inhibitor dose 0.026 µM): 0.00213 ΔA/Min | Vmax ([2]; inhibitor dose 0.052 µM): 0.00194 ΔA/Min | Vmax ([2]; inhibitor dose 0.104 µM): 0.0016 ΔA/Min | Vmax ([2]; inhibitor dose 0.208 µM): 0.001 ΔA/Min | Inhibition Type [2]: mixed type of mode inhibition

Cc1cc(C)cc(S(=O)(=O)NNC(N)=S)c1 [Compound 12e, 2-((3,5-Dimethylphenyl)sulfonyl)hydrazine-1-carbothioamide]
radical scavenging potency [3]: excellent radical scavenging potency | melting point: 160 to 162 °C | IC50 [1, 5]: 96 ± 4 nM

Cc1ccc(S(=O)(=O)NNC(N)=S)cc1[N+](=O)[O-] [Compound 12f, 2-((4-Methyl-3-nitrophenyl)sulfonyl)hydrazine-1-carbothioamide]
radical scavenging potency [3]: excellent radical scavenging potency | melting point: 160 to 163 °C | IC50 [1, 5]: 67 ± 2.9 nM

NC(N)=S [Thiourea, reference compound]
IC50 [1, 4]: 17810 ± 96 nM
